The source made the active and inactive calls. The rule behind the calls is not given here.
Legend:
[1] = Toxicity in Han Wistar rat assessed as effect on mydriasis at 250 to 1000 mg/kg, po administered every other day for 7 days; format: organism-based; conditions: in vivo, 168 h, dose 250-1000 mg/kg, time 7 day
[2] = Cardiotoxicity in anesthetized guinea-pig assessed as cardiac contractility; format: toxicity, Cavia porcellus; conditions: 0.09 µM, DDE = dose-dependent effect, dose 90 nM
Plasmodium falciparum [3] = assay: Antimalarial activity against Plasmodium falciparum 7G8 harbouring Pf-crt, Pf-mdrl,Pf-dhfr, Pf-dhps mutated loci assessed as inhibition of parasite growth pretreated for 48 hrs followed by [3H]-hypoxanthine addition measured after 24 hrs by scintillation counting method; format: functional, organism-based
[4] = Volume of distribution at steady state in Cynomolgus monkey blood at 1 mg/kg, iv measured at 2 to 72 hrs by LC-MS/MS analysis; format: ADME, organism-based, Macaca fascicularis; conditions: whole blood, time 2-72 hrs, read-out: Vdss
[5] = Toxicity in Han Wistar rat assessed as effect on scotopic amplitude at 1000 mg/kg, po administered every other day for 7 days by ERG analysis; format: organism-based; conditions: in vivo, 168 h, time 7 day
[6] = Toxicity in Han Wistar rat assessed as auto-fluorescent granule accumulation in retinal epithelium at 250 to 1000 mg/kg, po administered every other day for 7 days; format: organism-based; conditions: in vivo, 168 h, dose 250-1000 mg/kg, time 7 day
[7] = Cmax in Han Wistar rat at 1000 mg/kg, po administered every other day for 7 days; format: ADME, organism-based; design: dose 1000 mg/kg, time 7 day, route po; conditions: in vivo
[8] = Clearance in Sprague-Dawley rat blood at 1 mg/kg, iv measured at 2 to 72 hrs by LC-MS/MS analysis; format: ADME, organism-based; conditions: whole blood, time 2-72 hrs
Plasmodium falciparum [9] = assay: Antimalarial activity against Plasmodium falciparum PH1263-C harbouring Pf-crt mutated loci assessed as inhibition of parasite growth pretreated for 48 hrs followed by [3H]-hypoxanthine addition measured after 24 hrs by scintillation counting method; format: functional, organism-based
[10] = Cmax in Cynomolgus monkey blood at 10 mg/kg, po measured at 2 to 72 hrs by LC-MS/MS analysis; format: ADME, organism-based, Macaca fascicularis; design: dose 10 mg/kg, time 2-72 hrs, route po; conditions: whole blood
[11] = Oral bioavailability in Cynomolgus monkey blood at 10 mg/kg measured at 2 to 72 hrs by LC-MS/MS analysis; format: ADME, organism-based, Macaca fascicularis; conditions: time 2-72 hrs
in vivo = conditions: cynomolgus monkey, blood, po, 10 mg/kg
Plasmodium falciparum [12] = assay: Antimalarial activity against Plasmodium falciparum K1 harbouring Pf-crt, Pf-mdrl,Pf-dhfr, Pf-dhps mutated loci assessed as inhibition of parasite growth pretreated for 48 hrs followed by [3H]-hypoxanthine addition measured after 24 hrs by scintillation counting method; format: functional, organism-based
[13] = AUC in Cynomolgus monkey blood at 10 mg/kg, po measured at 2 to 72 hrs by LC-MS/MS analysis; format: ADME, organism-based, Macaca fascicularis; design: dose 10 mg/kg, time 2-72 hrs, route po
Plasmodium falciparum [14] = assay: Antimalarial activity against Plasmodium falciparum TM90C2b harbouring Pf-crt, Pf-mdrl,Pfd-hfr, Pf-cytbQ0 mutated loci assessed as inhibition of parasite growth pretreated for 48 hrs followed by [3H]-hypoxanthine addition measured after 24 hrs by scintillation counting method; format: functional, organism-based
[15] = Toxicity in Han Wistar rat assessed as effect on photopic amplitude at 1000 mg/kg, po administered every other day for 7 days by ERG analysis; format: organism-based; conditions: in vivo, 168 h, time 7 day
[16] = Toxicity in Han Wistar rat assessed as effect on auditory reflex at 250 to 1000 mg/kg, po administered every other day for 7 days; format: organism-based; conditions: in vivo, 168 h, dose 250-1000 mg/kg, time 7 day
Plasmodium falciparum [17] = assay: Antimalarial activity against Plasmodium falciparum infected NSG mouse model assessed as accumulation of circulating mature schizonts measured after 2 cycles of drug exposure at 60 mg/kg, po bid administered daily for 3 days; format: functional, organism-based; conditions: time 3.0 day
[18] = Cardiotoxicity in anesthetized guinea-pig assessed as decrease in heart rate; format: toxicity, Cavia porcellus; conditions: 0.09 µM, DDE = dose-dependent effect, dose 90 nM
Plasmodium falciparum [19] = assay: Antimalarial activity against DSM265 resistant Plasmodium falciparum Dd2 harbouring pf-dhodh mutated loci assessed as inhibition of parasite growth pretreated for 48 hrs followed by [3H]-hypoxanthine addition measured after 24 hrs by scintillation counting method; format: functional, organism-based
[20] = Drug metabolism in dog hepatocytes assessed as (S)-6-(2-chloro-3-((6-cyclopropylpyridin-3-yl)amino)phenyl)-2-imino-6-methyl-3-((2S,4S)-2-methyltetrahydro-2H-pyran-4-yl)tetrahydropyrimidin-4(1H)-one metabolite formation; format: ADME, cell-based, Canis lupus familiaris, Hepatocyte
Plasmodium berghei [21] = assay: Antimalarial activity against luciferase expressing Plasmodium berghei sporozoites infected in naive C57B/6 liver mouse model assessed as decrease in liver infection at 50 mg/kg, po administered twice daily on day 8 by Giemsa staining based microscopic analysis; format: functional, organism-based; conditions: time 8.0 day
[22] = biological target: T1, A-type voltage-gated potassium channel KCND3 (Homo sapiens, UniProt Q9UK17); assay: Inhibition of Kv4.3 (unknown origin) by patch clamp method; format: toxicity
T1 sequence (Q9UK17 whole entry): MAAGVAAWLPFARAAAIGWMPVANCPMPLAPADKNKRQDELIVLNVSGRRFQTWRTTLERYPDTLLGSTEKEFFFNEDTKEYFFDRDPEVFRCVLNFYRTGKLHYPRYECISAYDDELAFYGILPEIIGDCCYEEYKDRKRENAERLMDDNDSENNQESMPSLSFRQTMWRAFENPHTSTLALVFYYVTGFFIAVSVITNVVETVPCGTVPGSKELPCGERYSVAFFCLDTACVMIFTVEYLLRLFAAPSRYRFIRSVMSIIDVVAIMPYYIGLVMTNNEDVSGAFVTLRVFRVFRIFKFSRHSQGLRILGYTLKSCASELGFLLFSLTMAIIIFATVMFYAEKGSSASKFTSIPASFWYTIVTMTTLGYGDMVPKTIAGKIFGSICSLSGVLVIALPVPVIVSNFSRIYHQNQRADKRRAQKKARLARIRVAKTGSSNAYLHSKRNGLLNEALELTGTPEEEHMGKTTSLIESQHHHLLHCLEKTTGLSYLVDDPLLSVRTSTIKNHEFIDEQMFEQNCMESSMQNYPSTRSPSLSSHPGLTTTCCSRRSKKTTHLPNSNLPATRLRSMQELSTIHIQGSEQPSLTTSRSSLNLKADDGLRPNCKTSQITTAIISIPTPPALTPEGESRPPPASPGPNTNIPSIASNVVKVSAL

Plasmodium berghei [23] = assay: Antimalarial activity against Plasmodium berghei sporozoites infected in naive C57B/6 liver mouse model assessed as decrease in liver infection at 50 mg/kg, po administered once daily for 1 to 2 days by Giemsa staining based microscopic analysis; format: functional, organism-based; conditions: time 1-2 day
[24] = AUClast in NSG mouse at 50 mg/kg, po by LC-MS/MS analysis; format: ADME, organism-based; design: time 0 - last, dose 50 mg/kg, route po; conditions: in vivo
[25] = Lipophilicity, log D of the compound; format: physicochemical; conditions: octanol/water
[26] = Drug metabolism in rat hepatocytes assessed as (S)-6-(2-chloro-3-((6-cyclopropylpyridin-3-yl)amino)phenyl)-2-imino-6-methyltetrahydropyrimidin-4(1H)-one metabolite formation; format: ADME, cell-based, Hepatocyte
[27] = Inhibition of Plasmodium falciparum PMV by FRET assay
[28] = Drug metabolism in human hepatocytes assessed as (S)-6-(2-chloro-3-((6-cyclopropylpyridin-3-yl)amino)phenyl)-2-imino-6-methyl-3-((2S,4S)-2-methyltetrahydro-2H-pyran-4-yl)tetrahydropyrimidin-4(1H)-one metabolite formation; format: ADME, cell-based, Hepatocyte
HepG2 = assay: Cytotoxicity against human HepG2 cells assessed reduction in cell viability; format: toxicity, cell-based

Q: For `C[C@H]1C[C@@H](N2C(=N)N[C@](C)(c3cccc(NC(=O)c4cccc(C#N)c4)c3Cl)CC2=O)CCO1`, which Activity [1] is on record?
A: Its Activity is “Non-Toxic”.

Q: What about the Activity [2] of the same molecule?
A: Its Activity is “Dde”.

Q: What about the IC50 (Plasmodium falciparum [3]) of the same molecule?
A: The IC50 was 24 nM.

Q: What about the Vd [4] of the same molecule?
A: The Vd was 3.07 L/kg.

Q: What about the Activity [5] of the same molecule?
A: Its Activity is “Non-Toxic”.

Q: What about the Activity [6] of the same molecule?
A: Its Activity is “Non-Toxic”.

Q: And the Cmax [7]?
A: The Cmax was 25000 ng/mL.

Q: And the clearance [8]?
A: The clearance was 43.9 mL/min/kg.

Q: And the IC50 (Plasmodium falciparum [9])?
A: Its IC50 is 18 nM.

Q: And the Cmax [10]?
A: The Cmax was 2560 nM.

Q: What about the bioavailability [11] of the same molecule?
A: Its bioavailability is 39%.

Q: What about the Tmax (in vivo) of the same molecule?
A: Its Tmax is 1 h.

Q: And the IC50 (Plasmodium falciparum [12])?
A: Its IC50 is 33 nM.

Q: What about the AUC [13] of the same molecule?
A: The AUC was 7.38 µM·h.

Q: What about the IC50 (Plasmodium falciparum [14]) of the same molecule?
A: Its IC50 is 15 nM.

Q: And the Activity [15]?
A: Its Activity is “Non-Toxic”.

Q: And the Activity [16]?
A: Its Activity is “Non-Toxic”.

Q: And the Activity (Plasmodium falciparum [17])?
A: The Activity was “Active”.

Q: And the Activity [18]?
A: Its Activity is “Dde”.

Q: And the IC50 (Plasmodium falciparum [19])?
A: Its IC50 is 22 nM.

Q: For `C[C@H]1C[C@@H](N2C(=N)N[C@](C)(c3cccc(Nc4ccc(C5CC5)nc4)c3Cl)CC2=O)CCO1`, which Drug metabolism [20] is on record?
A: The Drug metabolism was “Metabolite_Detected”.

Q: And the Activity (Plasmodium berghei [21])?
A: Its Activity is “Active”.

Q: What about the IC50 [22] of the same molecule?
A: The IC50 was 28000 nM.

Q: And the Activity (Plasmodium berghei [23])?
A: The Activity was “Active”.

Q: And the AUC [24]?
A: Its AUC is 2 10^6nM.

Q: And the logD [25]?
A: Its logD is 2.5.

Q: What about the Drug metabolism [26] of the same molecule?
A: The Drug metabolism was “Metabolite_Detected”.

Q: What about the IC50 [27] of the same molecule?
A: Its IC50 is over 10000 nM.

Q: And the Drug metabolism [28]?
A: Its Drug metabolism is “Metabolite_Detected”.

Q: And the IC50 (HepG2)?
A: The IC50 was 16000 nM.
